Assay results reported in patent US20240408071A1, “NOVEL COMBINATION OF SEROTONIN RECEPTOR (5-HTR2B) ANTAGONIST AND AN IMMUNOMODULATOR AND CHEMOTHERAPEUTIC DRUGS FOR INHIBITION OF CANCER” (NATIONAL CENTRE FOR CELL SCIENCE, priority 2021, published 2024).

Legend:
B16F10 melanoma tumor = assay: Adoptive transfer of lymph node cells into NRG mice bearing MC38 and B16F10 tumors: B16F10 flank; type: in vivo; settings: same recipient mice, other flank (FIG. 11B)
Experimental: FIG. 11 depicts the effect of 5-HTR antagonists on the antigen-specific CTL response MC38 tumor model in mice: (A) Representative experimental plan of the adoptive transfer experiment where NRG mice. In brief, NRG mice were inoculated with MC38 on one flank and B16F10 cells on the other. These mice received total lymph node cells from naïve C57BL/6J mice or MC38 tumor-bearing control or RS-127445 treated mice. (B) Tumor volume data from the above-described experiment was measured and plotted (C) Immunocytochemistry data showing expression of H2-Kb-[…]^+ (red) on MC38 cells transfected with pCL-neo-OVA plasmid on the right side and MC38 cells without transfection. DAPI is used as a counterstain. (D-E) C7BL/6J mice were inoculated with an MC38-ova cell line and treated with RS-127445 or left untreated. After 10 days of such treatment, Total lymph node cells were harvested tagged with CFSE, and cultured in the presence of ovalbumin protein (50 μg/ml) for 5 days. After 5 days cells were checked for CFSE expression by flow cytometry to check proliferation. Here is the data (D) showing the CFSE in CD8^+ cells. The statistical data of the total percentage of CFSE^− CD8 T cells corresponding with the percentage of proliferated CD8 T cells were plotted. […]

MC38 tumor = assay: CD31+ micro-blood vessel count in MC38 tumor sections (IHC, angiogenesis); type: in vivo, mice; settings: MC38 tumor harvested after 20 days of tumor inoculation
Experimental: FIG. 6 depicts that 5-HTR2B signalling in colon cancer affects cell proliferation and viability: Colon cancer MC38 cells were treated with serotonin (100 μM), 5-HTR2B agonist (BW-723C86; 50 μM), or 5-HTR2B antagonist (SB-215505; 50 μM) for 48 hours, and cell cycle analysis was performed by propidium iodide staining using flow cytometry. MC38 cells were also treated with a graded dose of 5-HTR2B agonist (BW-723C86) or serotonin. MTT assay was performed to measure cell viability. (A) After treatment with 5-HTR2B agonist BW-723C86, serotonin, or 5-HTR2B antagonist SB-215505, the relative cell cycle analysis is shown. (B) Relative cell viability data of MC38 cells following treatment of graded doses of 5-HTR2B agonist BW-723C86 or serotonin are shown. The data shown are representative of one of the three independent experiments. (C) MC38 tumor sections from the control tumor and 5-HTR2B antagonist treated tumor were stained for CD31 and the number of CD31^+ micro-blood vessels/mm^2 of tissue sections was counted and plotted to observe angiogenesis. […]
For fluorescence-based immunohistochemical staining, tissues were embedded in OCT tissue freezing media (Fisher Scientific) and stored at −80° C. […] The images were captured using Olympus FV3000 confocal microscope (Waltham, Massachusetts), and the images were analysed using Cellsens software (Olympus; Waltham, Massachusetts). […]

**Q.** For `CC(C)c1cc(-c2ccc(F)c3ccccc23)nc(N)n1` [RS-127445], which “B16F10 tumor growth after transfer of antagonist primed total immune cells” value (B16F10 melanoma tumor) is on record?
**A.** failed to control B16F10 tumor growth

**Q.** And the “number of CD31+ micro-blood vessels/mm^2 in the tumor area” value (MC38 tumor)?
**A.** reduced the number of micro-blood vessels/mm^2
